In BindingDB's records for doi:10.1021/jm00063a011 (Kyowa Hakko Kogyo, 1993):

Legend:
[1] = molecular target: Thromboxane-A synthase (Bos taurus); test: Activity against TXA2 synthase in bovine platelet microsome
[2] = as above

Structure (SMILES)	IC50 [1] [nM]	IC50 [2] [nM]
C/C(=C\c1ccc(Cc2cccnc2)cc1)C(=O)O [Sodium; (E)-2-methyl-3-(4-pyridin-3-ylmethyl-phenyl)-acrylate]	4.3	
O=C(O)c1ccc2c(c1)C(SCc1cccnc1)c1ccccc1CO2 (stereo not drawn) [11-(Pyridin-3-ylmethylsulfanyl)-6,11-dihydro-dibenzo[b,e]oxepine-2-carboxylic acid]	4	400
